Assay results as given in patent US9750934B2, “Treating bacteria with electric fields” (Novocure Limited, priority 2000, dated 2017).
Values joined by “and” are separate entries in the source; they are usually repeats but may differ in a detail not shown here. Equal values may be shown once.

Key:
S. aureus [1] = assay: MIC of antibiotic by serial twofold dilutions (NCCLS guidelines); type: cell-based, Staphylococcus aureus strain SH1000; conditions: Staphylococcus aureus; chloramphenicol alone; lowest concentration that completely inhibited growth; read-out: MIC against S. aureus
Protocol: Experiments were also performed on two different types of bacteria—Pseudomonas aeruginosa strain PAO1 and Staphylococcus aureus strain SH1000. All strains were grown in LB media (1.0% Bacto tryptone, 0.5% Yeast extract, 1% NaCl). Broth cultures of freshly plated bacteria strains were grown in 3 ml of liquid medium at 37° C. for 15 hours in an orbital shaker (220 RPM) and diluted in fresh LB broth to a predetermined absorbance at 595 nm which yielded the desired CFU per ml.
The combined effect of the electric fields and antibiotics was also tested. Chloramphenicol was obtained as powder and dissolved in EtOH (99%, Frutarom). All the stock solutions were filter sterilized and held at −20° C. until use. Serial twofold dilutions of each antibiotic agent were prepared following NCCLS guidelines. […] The MIC of electric fields was defined as the lowest intensity that inhibits growth by 80% or more compared with control, as determined using the microplate reader.

S. aureus [2] = assay: Checkerboard test of the combined effect of electric fields and chloramphenicol on growth of S. aureus; type: cell-based, Staphylococcus aureus strain SH1000
Protocol: At the end of treatment, the cultures were stirred several times by up and down pipetting. Four aliquots of 250 μl were dispensed into a 96 MicroWells plate (Nunclon™ Δ, Nunc, Denmark) and the OD was determined spectrophotometrically with a microplate reader (Infinite 200, Tecan, Austria) at 750 nm. The optical densities (ODs) of the blanks, which consisted of uninoculated LB, were subtracted from the ODs of the inoculated plates. The percentage of growth for each well was calculated by dividing the OD of the wells by that of the control: (OD750mm of treated wells/OD750nm of the control well)×100.
Drug interactions with the electric fields were assessed according to the checkerboard method, with the following modifications: S. aureus inocula were diluted in LB medium containing the antibiotic to final concentration of 0.5 to 1.0×10^5 CFU/ml. The final concentrations of the chloramphenicol ranged from 0.125 to 16 μg/ml. Petri dishes containing the electric fields chamber were filled with 7 ml of the diluted cultures, and placed inside a pre cooled incubator. Fields were applied for 6 hours with the field direction alternating every 300 ms and the field intensities were varied by changing the incubator ambient temperature. Thus, lower ambient temperatures allowed for higher field intensities while maintaining the proper culture temperature of 37° C. Control plates containing the same electric fields chambers were placed in a pre-warmed incubator set at 37° C. At the end of the treatment, the cultures were stirred by pipetting the plate content up and down. Quadruplicates of 250 μl each were transferred to a 96 MicroWells plate (Nunc) and the OD was determined using Tecan microplate reader. Cultures were subjected to serial 10-fold dilution (up to 1/10,000) by adding 20 μl of sample to 180 μl of saline solution (0.85% NaCl), from which 80 μl aliquots were plated on LB agar plates (1.5% agar, 1.0% Bacto tryptone, 1% NaCl, 0.5% Yeast extract). CFU counts were performed after overnight incubation at 37° C.
To evaluate the effect of the combinations, the fractional inhibitory concentration (FIC) was calculated for the electric fields and for each antibiotic. The following formulas were used to calculate the FIC index: FIC of electric fields=MIC of electric fields in combination/MIC of electric fields alone, FIC of drug B=MIC of drug B in combination/MIC of drug B alone, and FIC index=FIC of electric fields+FIC of drug B. Synergy was defined as an FIC index of ≦0.5. Indifference was defined as an FIC index of >0.5 but of ≦4. Antagonism was defined as an FIC index of >4.

[3] = tested on: P. aeruginosa strain PAO1; assay: P. aeruginosa pulmonary infection in neutropenic ICR mice, ceftazidime alone or combined with electric fields / sham heat; type: in vivo, Pseudomonas aeruginosa; conditions: for Average lungs weight, weight in mg (±STDEV): end of 48 hour treatment
Protocol: In vivo experiments were also performed on Pseudomonas aeruginosa strain PAO1 in lungs of infected mice. For this example, bacteria were grown in LB media (1.0% Bacto tryptone, 0.5% Yeast extract, 1.0% NaCl (Frutarom, Haifa, Israel). Broth cultures of freshly plated bacteria were grown in 250 ml of liquid medium at 37° C. in an orbital shaker at 220 RPM (New Brunswick Scientific, N.J., USA) up to logarithmic phase, centrifuged and resuspended in saline containing 15% glycerol. Stocks were divided into aliquots of 50 μl each containing 2.17×10^7 Colony Forming Units (CFU)/ml and kept at −70° C. until use.
Experiments were conducted on 7- to 8-week-old (body weight 26-35 g) ICR female mice obtained from Harlan laboratories (Israel). Mice were housed under standard conditions of light and temperature, and were fed standard laboratory chow and water ad libitum. Electric fields were generated by 2 pairs of parallel metal electrodes, 15 mm-long; 3 mm-high. The front of the electrodes was completely insulated from the medium by a ceramic [(lead magnesium niobate-lead titanate (PMN-PT) (EDO, New York, N.Y.)] having a very high dielectric constant (∈>5000) such that their capacitance was about 10 nF each. The back of the electrodes was insulated by a 2.5 mm thick layer of 353ND medical grade epoxy (Epoxy Technology, Billerica, Mass., USA). Each electrode contained a thermistor placed within the epoxy directly on top of the ceramic in order to allow for constant monitoring of the electrodes' temperature.
Two control groups were set in each experiment: sham heat control, and non treated control (referred to as “Control”). Control electrodes of identical size and shape to the electric fields electrodes, were placed on mice of the two control groups. The Sham heat electrodes produced equal temperature changes to those produced by the field electrodes by means of a heating resistor incorporated within them, and the sham heat electrodes were placed in the same positions as the real electrodes. Except for the differences in the electrodes, the control mice and the sham heat treated mice were held in conditions identical to those of the electric fields treated mice.
Mice were rendered neutropenic (neutrophil counts, <100/mm^3), as described in Andes and Craig (1998), by two intraperitoneal injections of cyclophosphamide; four days before infection (150 mg/kg of body weight) and an additional injection one day before infection (100 mg/kg of body weight). The pulmonary infection model of Takeda et al., (2006) was used with minor modifications: Anesthetized ICR mice were challenged intra-nasally with 20 μL of saline containing various concentrations (10^4-10^7 CFU/ml) of P. aeruginosa strain PAO1. On the day of infection, immediately before use, frozen bacterial cultures were thawed and diluted in saline to the desired concentration. Anesthetized mice were challenged intra-nasally with the bacterial suspension. Mice were sacrificed at 0, 3, 6, 9, 24, and 48 hours after infection in order to determine CFU counts in their lungs. After skin disinfection with 70% alcohol, lungs from sacrificed mice were removed aseptically, photographed, weighted and their CFU content was determined.
Application of electric fields to the mouse torso was carried out as follows: 4 days before infection, the torso of anesthetized mice was shaved with electrical clippers and depilated using cold wax. Electric fields treatment was applied through four insulated electrodes placed around the mouse torso so as to generate fields of two perpendicular directions. Mice were placed inside the IVC cages and the electrodes were connected to the connection box. Application of electric fields began 3 hours after infection and was maintained for 48 h with two brief stops daily for monitoring the physical condition of the mice. After 48 h of treatment, the mice were sacrificed and bacterial numbers in lung were determined. […]

Structure (SMILES): O=C(N[C@H](CO)[C@H](O)c1ccc([N+](=O)[O-])cc1)C(Cl)Cl [chloramphenicol, Chloramphenicol]
- MIC (S. aureus [1]): 4 µg/mL
- combined effect of electric fields and chloramphenicol (S. aureus [2]; S. aureus, 10 MHz fields, 6 hours): additive effect
- growth of S. aureus relative to control (S. aureus [2]; chloramphenicol 0.25 μg/ml, 0 V/cm, 6 hours): 66%
- growth of S. aureus relative to control (S. aureus [2]; chloramphenicol 0.25 μg/ml, 0.5-2.0 V/cm 10 MHz fields, 6 hours): 39%
- growth of S. aureus relative to control (S. aureus [2]; chloramphenicol 0.25 μg/ml, 2.0-2.5 V/cm 10 MHz fields, 6 hours): 51%
- growth of S. aureus relative to control (S. aureus [2]; chloramphenicol 0.25 μg/ml, 3.5-4.5 V/cm 10 MHz fields, 6 hours): 13%
- growth of S. aureus relative to control (S. aureus [2]; chloramphenicol 0.5 μg/ml, 0 V/cm, 6 hours): 45%
- growth of S. aureus relative to control (S. aureus [2]; chloramphenicol 0.5 μg/ml, 0.5-2.0 V/cm 10 MHz fields, 6 hours): 16%
- growth of S. aureus relative to control (S. aureus [2]; chloramphenicol 0.5 μg/ml, 2.0-2.5 V/cm 10 MHz fields, 6 hours): 20%
- growth of S. aureus relative to control (S. aureus [2]; chloramphenicol 0.5 μg/ml, 3.5-4.5 V/cm 10 MHz fields, 6 hours): 21%
- growth of S. aureus relative to control (S. aureus [2]; chloramphenicol 1 μg/ml, 0 V/cm, 6 hours): 30%
- growth of S. aureus relative to control (S. aureus [2]; chloramphenicol 1 μg/ml, 0.5-2.0 V/cm 10 MHz fields, 6 hours): 26%
- growth of S. aureus relative to control (S. aureus [2]; chloramphenicol 1 μg/ml, 2.0-2.5 V/cm 10 MHz fields, 6 hours): 6%
- growth of S. aureus relative to control (S. aureus [2]; chloramphenicol 1 μg/ml, 3.5-4.5 V/cm 10 MHz fields, 6 hours): 2%
- growth of S. aureus relative to control (S. aureus [2]; chloramphenicol 4 μg/ml, 0 V/cm, 6 hours): 7%
- growth of S. aureus relative to control (S. aureus [2]; chloramphenicol 4 μg/ml, 0.5-2.0 V/cm 10 MHz fields, 6 hours): 13%
- growth of S. aureus relative to control (S. aureus [2]; chloramphenicol 4 μg/ml, 2.0-2.5 V/cm 10 MHz fields, 6 hours): 2%
- growth of S. aureus relative to control (S. aureus [2]; chloramphenicol 4 μg/ml, 3.5-4.5 V/cm 10 MHz fields, 6 hours): 0%
- FIC index (S. aureus [2]; electric fields + chloramphenicol, based on OD measurements): 0.625
- concentration sufficient to produce complete inhibition of the growth of S. aureus in combination with electric fields (S. aureus [2]; in the presence of 4 V/cm 10 MHz electric fields applied for 6 hours, field direction alternating every 300 ms): 1 µg/mL

Structure (SMILES): CC(C)(O/N=C(\C(=O)N[C@@H]1C(=O)N2C(C(=O)[O-])=C(C[n+]3ccccc3)CS[C@H]12)c1csc(N)n1)C(=O)O [ceftazidime, Ceftazidime]
- reduction in the lung CFU content compared to the antibiotic-only treated control ([3]; 48 h combined treatment of electric fields and ceftazidime): 1.5 log
- Log CFU (T48) ± STDEV, number of bacteria in the lungs of infected mice ([3]; ceftazidime 5 mg/kg i.p. twice daily + electric fields, 48 h): 5.0 ± 1.7 Log CFU
- Log CFU (T48) ± STDEV, number of bacteria in the lungs of infected mice ([3]; ceftazidime 5 mg/kg i.p. twice daily + sham heat, 48 h): 6.0 ± 2.3 Log CFU
- Log CFU (T48) ± STDEV, number of bacteria in the lungs of infected mice ([3]; ceftazidime 5 mg/kg i.p. twice daily alone (control of the with-ceftazidime groups), 48 h): 6.5 ± 2.5 Log CFU
- growth reduction compared to the non treated lungs ([3]; ceftazidime 10 mg/kg BW/day alone): ~2 logs
- log CFU/lung (T48/T0) (±STDEV), P. aeruginosa growth in mice lungs ([3]; ceftazidime + electric fields, 48 h): 0.4 log CFU/lung and 0.4 ± 1.7 log CFU/lung
- Average lungs weight, weight in mg (±STDEV) ([3]; ceftazidime + electric fields): 244 ± 31 mg
- log CFU/lung (T48/T0) (±STDEV), P. aeruginosa growth in mice lungs ([3]; ceftazidime + sham heat, 48 h): 1.3 ± 2.2 log CFU/lung
- Average lungs weight, weight in mg (±STDEV) ([3]; ceftazidime + sham heat): 275 ± 60 mg
- log CFU/lung (T48/T0) (±STDEV), P. aeruginosa growth in mice lungs ([3]; ceftazidime alone (control), 10 mg/kg BW/day, 48 h, 10 mg/kg/day): 1.9 log CFU/lung and 1.9 ± 2.5 log CFU/lung
- Average lungs weight, weight in mg (±STDEV) ([3]; ceftazidime alone (control)): 310 ± 77 mg
- lung CFU count reduction compared to the control ([3]; combined treatment of sham heat and ceftazidime, 48 h): did not result in a significant count reduction
